Where “and” joins values, the source holds several entries; their conditions need not be identical. Equal values may be shown once. Entries after “also recorded” stand apart in the source; their conditions may differ.
Key:
[1] = tested on: SH-SY5Y mito-QC cells; assay: Mitophagy (mito-QC) live imaging in SH-SY5Y cells; assay type: cell-based, human
Procedure: SH-SY5Y cells stably expressing mCherry-GFP-Fis1101-152 reporter (SH-SY5Y mito-QC) kindly provided by Dr I Ganley (MRC PPU, Dundee) were cultured in DMEM/F12 media supplemented with 1% L-glutamine, 1% penicillin/streptomycin, 1% non-essential amino acids, 10% fetal bovine serum at 37 °C and 5% CO2.
For inhibitor studies, live imaging was applied to mitophagy puncta analysis in SH-SY5Y mito-QC cells. SH-SY5Y mito-QC cells were plated overnight at 7000 cells/well into black walled PhenoPlate 96-well microplates in DMEM/F-12 (phenol red free) supplemented as above. SH-SY5Y mito-QC cells were incubated with NucBlue™ live stain for 20 mins then washed. […] Cells were live imaged using the Operetta CLS Type HH1600 (optical mode set to confocal, 40x water objective) at timepoints 0 h, 4 h, 20 h, 24 h, 48 h and 72 h. Images were acquired using the following channel settings: mCherry; excitation 530/60 nm, emission 570/650 nm, GFP; excitation 460/90 nm, emission 500/650 nm, Hoechst; excitation 355/85 nm, emission 430/500 nm. For all conditions tested, quantification of mitophagy was performed from three independent experiments (with three technical replicates capturing 11 fields of views, 6 z-stacks).
Image Quantification: For analysis of mitophagy, images were processed with the Harmony analysis software using the “SH-SY5Y-mito-QC_analysis 2” sequence. For mitolysosome identification the following analysis steps were performed: (1) Identification of the cell nuclei using Hoechst staining, (2) Identification of the cell cytoplasm using a deep phase contrast (DPC) image, (3) Identification of the mitochondrial network, using the Ser-Bright function on the mCherry channel within the cytoplasm, (4) Mitochondrial network partitioning using the FindSpots function, (5) Identification of mitophagic puncta with the partitioned mitochondrial network, using an mCherry:GFP ratio threshold of mean >+3 standard deviations from the 24 h DMSO only treated cells.

[2] = target: OTUB2 (Homo sapiens, UniProt Q96DC9); assay: DUB/cathepsin selectivity biochemical assay
[3] = target: USP4 (Homo sapiens, UniProt Q13107); assay: DUB/cathepsin selectivity biochemical assay
[4] = target: USP1 (Homo sapiens, UniProt O94782); assay: DUB/cathepsin selectivity biochemical assay
[5] = target: UchL5 (Homo sapiens, UniProt Q9Y5K5); assay: DUB/cathepsin selectivity biochemical assay
[6] = target: BAP1 (Homo sapiens, UniProt Q92560); assay: DUB/cathepsin selectivity biochemical assay
[7] = target: USP24 (Homo sapiens, UniProt Q9UPU5); assay: DUB/cathepsin selectivity biochemical assay
[8] = target: CEZANNE1 (Homo sapiens, UniProt Q6GQQ9); assay: DUB/cathepsin selectivity biochemical assay
[9] = In-life whole blood compound levels in the A53T model; assay type: in vivo, mouse; conditions: for Blood exposure / Cmax: A53T model; for Blood exposure: 0.5-6 h sampling; for In-life whole blood compound level (Figure 4d): individual animals; for Cmax: mouse, whole blood, seven days before end of study
Procedure: In-life blood samples were taken at 0.5, 1, 2, 4, 6 h, timed relative to the first daily dose, from n = 3 animals per time point to give a composite profile from animals in each group. The in-life blood samples were collected from the saphenous vein (20 µL), transferred in an Eppendorf tube immediately and mixed with an equal volume (20 µL) of ice-cold Serine esterase inhibitor, trichlorfon (100 µM), the sample was frozen, stored at −80 °C and compound levels analyzed by LC-MS.

[10] = target: Trabid (Homo sapiens, UniProt Q9UGI0); assay: DUB/cathepsin selectivity biochemical assay
[11] = target: USP5 (Homo sapiens, UniProt P45974); assay: DUB/cathepsin selectivity biochemical assay
[12] = target: T1, OTUD3 CD (Homo sapiens, UniProt Q5T2D3); assay: DUB/cathepsin selectivity biochemical assay
T1 construct: OTUD3 CD

[13] = target: USP20 (Homo sapiens, UniProt Q9Y2K6); assay: DUB/cathepsin selectivity biochemical assay
[14] = target: T2, SENP2 CD (Homo sapiens, UniProt Q9HC62); assay: DUB/cathepsin selectivity biochemical assay
T2 construct: SENP2 CD

[15] = target: USP6 (Homo sapiens, UniProt P35125); assay: DUB/cathepsin selectivity biochemical assay
[16] = target: USP11 (Homo sapiens, UniProt P51784); assay: DUB/cathepsin selectivity biochemical assay
[17] = Mouse blood and prefrontal cortex microdialysis pharmacokinetics (Kpu,u); assay type: in vivo; conditions: single 10 mg/kg oral dose, at the 60-min time point
Procedure: Mouse Kpu,u estimates were calculated from blood and prefrontal cortex compound profiles following oral dosing of 10 or 30 mg/kg by gavage, with sequential blood sampling from the jugular vein and sequential brain interstitial fluid sampling via a microdialysis probe in the prefrontal cortex.

[18] = Mouse pharmacokinetics (IV clearance, oral bioavailability); assay type: in vivo; conditions: blood
[19] = target: USP19 (Homo sapiens, UniProt O94966); assay: DUB/cathepsin selectivity biochemical assay
[20] = target: MINDY3 (Homo sapiens, UniProt Q9H8M7); assay: DUB/cathepsin selectivity biochemical assay
[21] = target: UchL3 (Homo sapiens, UniProt P15374); assay: DUB/cathepsin selectivity biochemical assay
[22] = target: USP25 (Homo sapiens, UniProt Q9UHP3); assay: DUB/cathepsin selectivity biochemical assay
[23] = target: T3, SENP1 CD (Homo sapiens, UniProt Q9P0U3); assay: DUB/cathepsin selectivity biochemical assay
T3 construct: SENP1 CD

[24] = target: T4, VCPIP FL (Homo sapiens, UniProt Q96JH7); assay: DUB/cathepsin selectivity biochemical assay
T4 construct: VCPIP FL

[25] = target: USP35 (Homo sapiens, UniProt Q9P2H5); assay: DUB/cathepsin selectivity biochemical assay
[26] = target: OTUD6B (Homo sapiens, UniProt Q8N6M0); assay: DUB/cathepsin selectivity biochemical assay
[27] = target: USP9x (Homo sapiens, UniProt Q93008); assay: DUB/cathepsin selectivity biochemical assay

T3 sequence (Q9P0U3 450-613 limits assumed): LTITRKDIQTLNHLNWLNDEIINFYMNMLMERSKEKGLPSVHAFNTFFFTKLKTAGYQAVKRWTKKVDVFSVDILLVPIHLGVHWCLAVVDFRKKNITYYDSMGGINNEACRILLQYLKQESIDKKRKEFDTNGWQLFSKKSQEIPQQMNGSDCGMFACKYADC
Sequence of UchL3 (P15374 whole entry, species assumed): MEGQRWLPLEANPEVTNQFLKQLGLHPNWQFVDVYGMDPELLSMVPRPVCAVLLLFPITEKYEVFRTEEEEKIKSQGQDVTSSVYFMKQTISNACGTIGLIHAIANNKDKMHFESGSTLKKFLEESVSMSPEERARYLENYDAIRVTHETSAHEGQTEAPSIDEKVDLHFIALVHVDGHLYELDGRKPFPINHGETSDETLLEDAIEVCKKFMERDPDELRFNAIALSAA
Sequence of CEZANNE1 (Q6GQQ9 whole entry): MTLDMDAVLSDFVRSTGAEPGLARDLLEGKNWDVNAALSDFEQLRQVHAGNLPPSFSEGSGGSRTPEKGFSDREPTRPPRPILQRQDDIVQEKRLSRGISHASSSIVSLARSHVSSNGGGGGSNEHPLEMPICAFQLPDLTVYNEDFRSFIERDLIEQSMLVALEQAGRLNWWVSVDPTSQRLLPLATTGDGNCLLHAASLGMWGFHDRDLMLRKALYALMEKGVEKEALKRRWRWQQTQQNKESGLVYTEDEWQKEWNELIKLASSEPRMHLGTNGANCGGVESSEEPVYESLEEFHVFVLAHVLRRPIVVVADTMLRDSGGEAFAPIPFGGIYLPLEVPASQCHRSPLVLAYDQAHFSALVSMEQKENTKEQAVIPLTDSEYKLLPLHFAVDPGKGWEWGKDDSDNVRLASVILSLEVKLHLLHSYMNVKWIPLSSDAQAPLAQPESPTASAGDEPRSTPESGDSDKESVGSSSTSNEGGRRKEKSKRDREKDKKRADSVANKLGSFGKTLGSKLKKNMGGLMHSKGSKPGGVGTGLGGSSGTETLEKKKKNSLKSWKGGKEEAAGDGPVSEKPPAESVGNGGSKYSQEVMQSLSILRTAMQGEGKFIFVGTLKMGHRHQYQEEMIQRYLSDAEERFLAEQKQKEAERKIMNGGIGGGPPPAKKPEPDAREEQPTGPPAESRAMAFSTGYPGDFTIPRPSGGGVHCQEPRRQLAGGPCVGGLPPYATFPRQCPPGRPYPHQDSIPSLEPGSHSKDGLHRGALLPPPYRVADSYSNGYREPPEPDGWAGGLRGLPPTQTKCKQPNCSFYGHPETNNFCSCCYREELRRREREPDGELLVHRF
Sequence of MINDY3 (Q9H8M7 whole entry, species assumed): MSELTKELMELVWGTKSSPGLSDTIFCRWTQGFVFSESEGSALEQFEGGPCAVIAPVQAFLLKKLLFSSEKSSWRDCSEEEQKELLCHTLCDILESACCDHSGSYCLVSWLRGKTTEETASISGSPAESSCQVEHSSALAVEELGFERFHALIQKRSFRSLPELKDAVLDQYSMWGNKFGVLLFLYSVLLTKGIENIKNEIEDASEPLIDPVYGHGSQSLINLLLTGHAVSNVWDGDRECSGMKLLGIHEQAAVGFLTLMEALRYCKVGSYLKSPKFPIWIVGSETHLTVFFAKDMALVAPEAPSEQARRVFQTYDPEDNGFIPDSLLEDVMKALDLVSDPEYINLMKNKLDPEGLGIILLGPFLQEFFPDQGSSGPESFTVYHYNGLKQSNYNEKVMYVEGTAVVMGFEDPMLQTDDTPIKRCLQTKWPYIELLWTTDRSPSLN
Sequence of USP35 (Q9P2H5 whole entry, species assumed): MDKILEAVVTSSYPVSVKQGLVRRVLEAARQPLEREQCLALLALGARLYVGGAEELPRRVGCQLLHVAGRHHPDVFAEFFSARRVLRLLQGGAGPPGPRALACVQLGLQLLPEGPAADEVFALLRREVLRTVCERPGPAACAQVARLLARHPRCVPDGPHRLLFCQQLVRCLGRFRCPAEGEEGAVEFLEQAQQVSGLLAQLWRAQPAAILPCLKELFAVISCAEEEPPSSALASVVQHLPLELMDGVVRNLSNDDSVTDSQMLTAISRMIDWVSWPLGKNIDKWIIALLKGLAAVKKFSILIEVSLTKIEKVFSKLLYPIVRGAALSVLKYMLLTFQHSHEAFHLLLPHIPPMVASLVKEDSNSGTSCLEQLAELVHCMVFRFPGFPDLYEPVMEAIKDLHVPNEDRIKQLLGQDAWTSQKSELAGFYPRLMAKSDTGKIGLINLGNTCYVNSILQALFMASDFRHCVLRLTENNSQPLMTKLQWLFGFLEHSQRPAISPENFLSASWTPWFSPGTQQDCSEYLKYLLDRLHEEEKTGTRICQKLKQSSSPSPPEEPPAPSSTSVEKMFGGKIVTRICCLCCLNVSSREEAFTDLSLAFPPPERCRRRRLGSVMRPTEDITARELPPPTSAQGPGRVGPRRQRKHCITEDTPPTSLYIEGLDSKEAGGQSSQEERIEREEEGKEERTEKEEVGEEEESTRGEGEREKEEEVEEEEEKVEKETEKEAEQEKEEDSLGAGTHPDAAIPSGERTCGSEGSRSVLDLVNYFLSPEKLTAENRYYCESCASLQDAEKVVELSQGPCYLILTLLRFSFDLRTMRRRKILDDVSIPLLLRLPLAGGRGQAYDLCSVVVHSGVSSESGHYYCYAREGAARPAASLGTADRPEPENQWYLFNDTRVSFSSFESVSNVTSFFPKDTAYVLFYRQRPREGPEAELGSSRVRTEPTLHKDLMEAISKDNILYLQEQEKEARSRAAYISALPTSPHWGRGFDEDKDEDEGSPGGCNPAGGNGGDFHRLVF
Sequence of USP6 (P35125 whole entry, species assumed): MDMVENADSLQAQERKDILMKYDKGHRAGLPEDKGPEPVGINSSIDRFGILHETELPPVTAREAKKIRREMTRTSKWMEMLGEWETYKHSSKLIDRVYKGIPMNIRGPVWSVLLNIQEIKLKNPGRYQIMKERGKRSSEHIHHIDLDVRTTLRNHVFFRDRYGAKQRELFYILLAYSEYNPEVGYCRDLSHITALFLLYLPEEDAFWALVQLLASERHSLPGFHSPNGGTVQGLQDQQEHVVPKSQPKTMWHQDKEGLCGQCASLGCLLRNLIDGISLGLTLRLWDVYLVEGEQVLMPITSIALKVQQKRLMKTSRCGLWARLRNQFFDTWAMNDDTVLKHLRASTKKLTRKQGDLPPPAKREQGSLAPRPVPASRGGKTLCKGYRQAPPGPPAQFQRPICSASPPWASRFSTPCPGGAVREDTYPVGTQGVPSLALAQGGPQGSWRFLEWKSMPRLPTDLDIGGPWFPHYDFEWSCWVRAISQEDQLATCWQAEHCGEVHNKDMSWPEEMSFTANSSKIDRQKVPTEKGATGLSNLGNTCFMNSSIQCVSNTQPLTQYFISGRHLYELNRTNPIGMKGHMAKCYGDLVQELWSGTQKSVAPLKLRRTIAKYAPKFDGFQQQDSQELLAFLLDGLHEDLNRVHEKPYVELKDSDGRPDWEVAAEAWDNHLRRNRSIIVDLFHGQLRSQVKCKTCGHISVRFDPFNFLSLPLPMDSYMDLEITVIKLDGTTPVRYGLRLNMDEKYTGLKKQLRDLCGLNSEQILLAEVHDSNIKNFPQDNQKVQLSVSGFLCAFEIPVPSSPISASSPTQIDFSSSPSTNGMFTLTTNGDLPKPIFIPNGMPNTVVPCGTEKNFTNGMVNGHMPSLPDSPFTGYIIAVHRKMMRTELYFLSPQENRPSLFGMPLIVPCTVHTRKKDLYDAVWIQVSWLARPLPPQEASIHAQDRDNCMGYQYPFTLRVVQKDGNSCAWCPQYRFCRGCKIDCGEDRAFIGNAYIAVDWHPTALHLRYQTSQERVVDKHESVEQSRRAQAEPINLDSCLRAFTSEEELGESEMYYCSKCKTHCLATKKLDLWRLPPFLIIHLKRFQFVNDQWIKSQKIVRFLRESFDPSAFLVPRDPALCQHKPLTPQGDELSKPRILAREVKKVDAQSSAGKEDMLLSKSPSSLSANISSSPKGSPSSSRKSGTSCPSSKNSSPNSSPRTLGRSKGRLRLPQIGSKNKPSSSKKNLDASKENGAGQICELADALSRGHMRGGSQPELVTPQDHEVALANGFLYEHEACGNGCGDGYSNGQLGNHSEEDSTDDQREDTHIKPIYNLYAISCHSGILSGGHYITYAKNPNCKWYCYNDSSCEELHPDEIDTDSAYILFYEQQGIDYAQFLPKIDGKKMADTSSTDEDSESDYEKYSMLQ
Sequence of OTUD6B (Q8N6M0 whole entry, species assumed): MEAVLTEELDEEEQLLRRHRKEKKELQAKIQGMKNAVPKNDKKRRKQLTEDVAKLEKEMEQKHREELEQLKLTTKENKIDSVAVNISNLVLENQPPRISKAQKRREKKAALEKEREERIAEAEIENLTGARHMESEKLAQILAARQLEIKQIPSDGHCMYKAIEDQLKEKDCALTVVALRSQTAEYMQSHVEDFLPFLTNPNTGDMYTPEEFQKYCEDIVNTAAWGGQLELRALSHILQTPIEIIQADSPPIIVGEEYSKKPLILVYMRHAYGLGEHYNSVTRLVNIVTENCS
T2 sequence (Q9HC62 396-560 limits assumed): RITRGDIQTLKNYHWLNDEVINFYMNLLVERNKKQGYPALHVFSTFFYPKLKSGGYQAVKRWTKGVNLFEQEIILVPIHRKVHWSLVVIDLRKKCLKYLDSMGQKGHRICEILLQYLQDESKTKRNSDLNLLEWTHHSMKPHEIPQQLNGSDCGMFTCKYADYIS
T1 sequence (Q5T2D3 65-189 limits assumed): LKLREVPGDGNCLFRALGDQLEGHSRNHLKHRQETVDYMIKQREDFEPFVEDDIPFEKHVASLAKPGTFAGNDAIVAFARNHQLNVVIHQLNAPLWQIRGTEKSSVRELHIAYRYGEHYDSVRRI
Sequence of OTUB2 (Q96DC9 whole entry, species assumed): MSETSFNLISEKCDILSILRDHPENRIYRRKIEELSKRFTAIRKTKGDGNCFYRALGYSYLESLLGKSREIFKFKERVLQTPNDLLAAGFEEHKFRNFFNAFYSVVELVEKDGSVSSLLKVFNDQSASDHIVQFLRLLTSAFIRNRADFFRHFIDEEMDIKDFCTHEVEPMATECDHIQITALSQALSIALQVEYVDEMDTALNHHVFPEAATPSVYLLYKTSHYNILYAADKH

C[C@@H]1[C@H]2CCN(C(=O)c3ncc(-c4ccnc(C#N)c4)o3)[C@H]2CN1C#N [MTX115325]
Increase in mitophagy ([1]; 37 nM, 72 h, with 0.1 mM A/O as printed): 22%
Maximum increase in mitophagy compared to baseline ([1]; 1 µM, 72 h, with 0.1 mM A/O as printed): 54%
Mitophagy (mito-QC) ([1]; 72 h in combination with sub-maximal A/O): significantly potentiates mitophagy induction; also recorded: concentration-dependent increase in mitophagy
IC50 [2]: > 300 µM
IC50 [3]: > 300 µM
IC50 [4]: > 300 µM
IC50 [5]: > 300 µM
IC50 [6]: > 300 µM
IC50 [7]: > 300 µM
IC50 [8]: > 300 µM
Blood exposure ([9]; 15 mg/kg BID oral): 13606 ng·h/mL
In-life whole blood compound level (Figure 4d) ([9]; 15mg/kg, 0 hours): 0
In-life whole blood compound level (Figure 4d) ([9]; 15mg/kg, 0.5 hours): 6664.93 and 11816.1
In-life whole blood compound level (Figure 4d) ([9]; 15mg/kg, 1 hour): 7008.88 and 8260.64
In-life whole blood compound level (Figure 4d) ([9]; 15mg/kg, 2 hours): 2278.7 and 2189.81
In-life whole blood compound level (Figure 4d) ([9]; 15mg/kg, 4 hours): 404.48 and 419 and 425.15
In-life whole blood compound level (Figure 4d) ([9]; 15mg/kg, 6 hours): 92.39 and 277.42
Blood exposure ([9]; 50 mg/kg BID oral): 42959 ng·h/mL
In-life whole blood compound level (Figure 4d) ([9]; 50mg/kg, 0 hours): 0
In-life whole blood compound level (Figure 4d) ([9]; 50mg/kg, 0.5 hours): 12073.7 and 13499.1 and 13769.4
In-life whole blood compound level (Figure 4d) ([9]; 50mg/kg, 1 hour): 13326.8 and 14323.4 and 17878.5
In-life whole blood compound level (Figure 4d) ([9]; 50mg/kg, 2 hours): 8220.29 and 5260.76
In-life whole blood compound level (Figure 4d) ([9]; 50mg/kg, 4 hours): 1244.02 and 1284.38
In-life whole blood compound level (Figure 4d) ([9]; 50mg/kg, 6 hours): 402.46 and 633.68
Cmax ([9]; 15 mg/kg BID oral): 7550 ng/mL
Cmax ([9]; 50 mg/kg BID oral): 16400 ng/mL
IC50 [10]: > 300 µM
IC50 [11]: > 300 µM
IC50 [12]: > 300 µM
IC50 [13]: > 300 µM
IC50 [14]: > 300 µM
IC50 [15]: 96.3 µM
IC50 [16]: 291 µM
Prefrontal cortex free CMax [17]: 528 nM
bioavailability ([18]; 10 mg/kg oral gavage vs 2 mg/kg IV): 98%
clearance ([18]; IV 2 mg/kg): 19.7 mL/min/kg
IC50 [19]: 278 µM
IC50 [20]: > 300 µM
IC50 [21]: > 300 µM
IC50 [22]: 93.2 µM
IC50 [23]: > 300 µM
IC50 [24]: > 300 µM
IC50 [25]: > 300 µM
IC50 [26]: > 300 µM
IC50 [27]: > 300 µM
